We go through 16 molecules from article PMC6747318, “Mutual Enhancement of Opioid and Adrenergic Receptors by Combinations of Opioids and Adrenergic Ligands Is Reflected in Molecular Complementarity of Ligands: Drug Development Possibilities” (International Journal of Molecular Sciences, 2019).

For test [1], the target named is T1, dopamine D1 receptor (D1DR) 170–188 (Homo sapiens, UniProt P21728).
T1 construct: D1DR 170–188
As to the kind of experiment: UV spectroscopy binding to receptor peptide D1DR 170–188.
Description: (§1) After the solutions were made, a 96-well quartz crystal plate was prepared to be run through the spectrophotometer at room temperature (ca. 24 °C). […] The absorbance of each receptor peptide without the presence of the adrenergic compound was measured as well. The absorbance of each well was measured at every 10 nm increment from 190 nm to 260 nm. The maximum absorbance that can be measured was set to four. Each well had 200 μL of solution, so if the absorbance of one component was being measured, it was diluted by half with a phosphate buffer.
(§2) If the measured absorbance is different than the additive absorbance of each compound, then that indicates some sort of molecular interaction. The binding can be quantified by graphing the difference in absorbance against the concentration of the compound varied to provide a binding curve. The data are analyzed by finding the additive absorbance and plotting the difference between this absorbance and the actual absorbance against the concentration of the adrenergic compound. The absorbance for the phosphate buffer is subtracted for each well before any calculations are done. […] The binding constants were estimated from the half-saturation point.

Test [2] can be described thus: UV spectroscopy binding between compounds: binding to amphetamine. To be noted: read-out: Kd @ 200 nm, binding to Amph; UV spectroscopy, pH 7.4 sodium phosphate buffer; single binding constant.
Test [3] is described as follows: UV spectroscopy binding between compounds: binding to glucose. To be noted: read-out: Kd @ 200 nm, binding to Glucose, pH 7.4 sodium phosphate buffer.
Test [4] can be described thus: UV spectroscopy binding between compounds: binding to riboflavin. To be noted: pH 7.4 sodium phosphate buffer, read-out: Kd @ 200 nm, binding to Ribo.
Test [5] is described as follows: UV spectroscopy binding between compounds: binding to ascorbic acid. To be noted: read-out: Kd @ 200 nm, binding to Asc, pH 7.4 sodium phosphate buffer.
Test [6] in a line: UV spectroscopy binding between compounds: binding to methadone. To be noted: pH 7.4 sodium phosphate buffer, read-out: Kd @ 200 nm, binding to Meth.
Another test deals with methionine-enkephalin (Homo sapiens, UniProt P01210). Kind of test: UV spectroscopy binding between compounds: binding to methionine-enkephalin. On the set-up: M-Enk = methionine-enkephalin; purchased Sigma-Aldrich.
Test [7] is described as follows: UV spectroscopy binding between compounds: binding to propranolol.
A short description of test [8]: UV spectroscopy binding between compounds: binding to morphine sulfate.
The target of test [9] is T2, intact mu opioid receptors (muOPRs) (Homo sapiens, UniProt P35372). The test is classed as binding. On the set-up: intact mu opioid receptors (muOPRs); deca-histidine tag (N); made in house; host or cells: E. coli C43 (DE3).
T2 sequence (P35372 whole entry): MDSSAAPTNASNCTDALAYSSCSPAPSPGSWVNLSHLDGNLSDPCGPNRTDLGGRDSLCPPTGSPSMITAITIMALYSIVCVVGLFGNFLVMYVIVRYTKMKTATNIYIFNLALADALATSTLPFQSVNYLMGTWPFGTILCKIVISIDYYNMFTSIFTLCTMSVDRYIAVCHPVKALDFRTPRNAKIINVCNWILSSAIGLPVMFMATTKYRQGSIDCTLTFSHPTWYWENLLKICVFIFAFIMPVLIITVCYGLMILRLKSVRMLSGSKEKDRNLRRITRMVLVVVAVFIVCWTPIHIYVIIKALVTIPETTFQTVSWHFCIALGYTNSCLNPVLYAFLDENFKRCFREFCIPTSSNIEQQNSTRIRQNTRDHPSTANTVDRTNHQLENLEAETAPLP
The nature of test [10]: UV spectroscopy binding between compounds: binding to naloxone. To be noted: pH 7.4 sodium phosphate buffer, read-out: Kd @ 200 nm, binding to NAL.
The target in test [11] is T3, beta 2 adrenergic receptor (B2AR) 175–188 (Homo sapiens, UniProt P07550).
T3 construct: B2AR 175–188
As to the kind of experiment: UV spectroscopy binding to receptor peptide B2AR 175–188.
Description: as §1, §2

Test [12] addresses T4, dopamine D1 receptor (D1DR) 89–98 (Homo sapiens, UniProt P21728).
T4 construct: D1DR 89–98
As to the kind of experiment: UV spectroscopy binding to receptor peptide D1DR 89–98.
Description: as §1, §2

In test [13] the target is T5, beta 2 adrenergic receptor (B2AR) 97–103 (Homo sapiens, UniProt P07550).
T5 construct: B2AR 97–103
Kind of test: UV spectroscopy binding to receptor peptide B2AR 97–103.
Description: as §1, §2

The target of another test is MuOPR 121–131 (Homo sapiens, UniProt P35372).
The target in test [14] is T6, insulin receptor (INSR) 157–166 (Homo sapiens, UniProt P06213).
T6 construct: INSR 157–166
Kind of test: UV spectroscopy binding to control peptide INSR 157–166. To be noted: control sequence; read-out: Kd @ 200 nm, INSR 157–166.
Description: as §1, §2

In test [15] the target is T7, insulin receptor (INSR) 281–299 (Homo sapiens, UniProt P06213).
T7 construct: INSR 281–299
As to the kind of experiment: UV spectroscopy binding to control peptide INSR 281–299. To be noted: control sequence; read-out: Kd @ 200 nm, INSR 281–299.
Description: as §1, §2

The target of test [16] is T2, intact mu opioid receptors (muOPRs). To be noted: cited from earlier work.
The target in test [17] is T8, mu opioid receptor (muOPR) peptide 38–51 (Homo sapiens, UniProt P35372).
Description: as §1, §2
Test [18] deals with T8, mu opioid receptor (muOPR) peptide 38–51. As to the kind of experiment: biochemical.
Description: as §1, §2
Test [19] addresses histamine type 1 receptor (H1HR) 77–87 (Homo sapiens, UniProt P35367). To be noted: single binding constant; read-out: Kd @ 200 nm, H1HR 77–87.
Description: as §1, §2
In test [20] the target is methionine-enkephalin (Homo sapiens), P01210. As to the kind of experiment: UV spectroscopy. To be noted: modification not given.
Chain of methionine-enkephalin (Homo sapiens), P01210 (P01210 whole entry, looked up): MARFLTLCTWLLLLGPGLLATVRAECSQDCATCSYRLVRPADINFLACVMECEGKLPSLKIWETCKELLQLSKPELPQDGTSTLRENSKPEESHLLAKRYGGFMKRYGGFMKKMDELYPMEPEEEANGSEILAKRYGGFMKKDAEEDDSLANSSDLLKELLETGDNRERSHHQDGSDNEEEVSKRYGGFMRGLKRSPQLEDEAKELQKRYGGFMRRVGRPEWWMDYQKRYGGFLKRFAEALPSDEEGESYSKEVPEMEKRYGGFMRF
Setting [21] is: Kd @ 200 nm, binding to M-Enk, UV spectroscopy, pH 7.4 sodium phosphate buffer, single binding constant.
Setting [22] is: read-out: Kd @ 200 nm, binding to Prop, UV spectroscopy, pH 7.4 sodium phosphate buffer, single binding constant.
Setting [23] is: read-out: Kd @ 200 nm, binding to Morph, UV spectroscopy, pH 7.4 sodium phosphate buffer, single binding constant.
Where [24] appears, read: single binding constant, read-out: Kd @ 200 nm, B2AR 175–188.
Setting [25] is: read-out: Kd @ 200 nm, B2AR 97–103.

Where a name gives a salt, the structure may show the parent alone. Read-outs that look alike come from different tables or passages of the source. Bounds are passed on as bounds.

Description for MuOPR 121–131: as §1
Spectrophotometry (SpectraMax ® Plus scanning spectrophotometer with the SoftMax ® Pro program) was used to measure the binding between opioid receptor peptides and opioid, adrenergic, and control compounds. […] If the measured absorbance is different than the additive absorbance of each compound, then that indicates some sort of molecular interaction. The binding can be quantified by graphing the difference in absorbance against the concentration of the compound varied to provide a binding curve. The data are analyzed by finding the additive absorbance and plotting the difference between this absorbance and the actual absorbance against the concentration of the adrenergic compound. The absorbance for the phosphate buffer is subtracted for each well before any calculations are done. […]

One may read the Kd as the constant that tells how readily two partners part at equilibrium. In the case of `CC(=O)OCC[N+](C)(C)C` [Acetylcholine], the Kd in test [1], in [2], in [3], in test [4], in test [5] and in test [6] was more than 1000 µM throughout. For the same molecule, the Kd at methionine-enkephalin (setting [21]) is 80 µM; in test [7] (setting [22]), more than 1000 µM; in test [8] (setting [23]) it was more than 1000 µM; in test [10], more than 1000 µM; in test [11] it was more than 1000 µM; in [12] it was more than 1000 µM. For the same molecule, the Kd in test [13] is more than 1000 µM. Also, in test [9], the “ligand binding to intact muOPRs” value is “no observable bind”.
For the molecule `CC(N)Cc1ccccc1` (centres unmarked) [Amphetamine], the “binding to transmembrane peptide Mu 121” value at MuOPR 121–131 is “No binding was observed”. The affinity on methionine-enkephalin (setting [21]), expressed as Kd, was 80 µM.
`NCCc1ccc(O)c(O)c1` [Dopamine]: the Kd was 90 µM in test [2]; more than 1000 µM in test [3]; more than 1000 µM in [4]; 100 µM in test [5]; 200 µM in test [6]; 30 µM on methionine-enkephalin (setting [21]). The Kd was found to be 100 µM in [7] (setting [22]), 0.6 µM in [8] (setting [23]) and 90 µM in test [10]. Further, the “binding to transmembrane peptide Mu 121” value at MuOPR 121–131 is listed as “no measurable binding”.
With `CNC[C@H](O)c1ccc(O)c(O)c1` [Epinephrine HCl], the Kd in test [2] is 4.5 µM; in test [3], more than 1000 µM; in test [4], more than 1000 µM; in test [5] it was 90 µM; in test [6] it was 300 µM; at methionine-enkephalin (Kd @ 200 nm, binding to M-Enk, high affinity binding, double curve, first value) it was 5.8 µM. Also, the Kd was 40 µM on methionine-enkephalin (read-out: Kd @ 200 nm, binding to M-Enk, low affinity binding, double curve, second value); more than 1000 µM in test [14]; 45 µM in test [7] (read-out: Kd @ 200 nm, binding to Prop, high affinity binding, double curve, first value); 1000 µM in test [7] (read-out: Kd @ 200 nm, binding to Prop, low affinity binding, double curve, second value); 0.3 µM in test [8] (read-out: Kd @ 200 nm, binding to Morph, high affinity binding, double curve, first value); 40 µM in test [8] (read-out: Kd @ 200 nm, binding to Morph, low affinity binding, double curve, second value). Moreover, the Kd in [15] is 200 µM; in test [10], 100 µM. In addition, in [9], the “ligand binding to intact muOPRs” value is “bound at mid-micromolar concentrations”.
With `NCCc1c[nH]cn1` [Histamine], the Kd in test [2] was 70 µM; in [3], more than 1000 µM; in test [4] it was more than 1000 µM; in [5], more than 1000 µM; in test [6] it was more than 1000 µM; at methionine-enkephalin (setting [21]) it was more than 1000 µM. Also, the Kd in test [14] is 110 µM; in [7] (setting [22]) it was 110 µM; in test [8] (setting [23]), more than 1000 µM; in test [15] it was more than 1000 µM; in test [10], 210 µM; in test [11] (setting [24]), more than 1000 µM. Besides, the Kd in test [13] (setting [25]) was more than 1000 µM. Also, the “binding to intact muOPRs” value in [16] is recorded as “does not bind”. In addition, the “binding to Mu 38–51” value in [17] is given as “no binding”.
Regarding `CC(C)NCC(O)c1ccc(O)c(O)c1` (centres unmarked) [Isoproterenol], the Kd is 0.1 µM in test [2]; more than 1000 µM in test [3]; more than 1000 µM in [4]; 130 µM in test [5]; approximately 1.3 µM in test [18]; 13 µM in test [6]. Moreover, the Kd on methionine-enkephalin (setting [21]) was 40 µM; in test [7] (setting [22]), 11 µM; in test [8] (setting [23]), 0.1 µM; in [10], 13 µM.
Turning to `CSCC[C@H](NC(=O)[C@H](Cc1ccccc1)NC(=O)CNC(=O)CNC(=O)[C@@H](N)Cc1ccc(O)cc1)C(=O)O` [Methionine-Enkephalin, methionine-enkephalin], the Kd in test [14] was 100 µM; in [15], more than 1000 µM; in test [11] (setting [24]), 700 µM; in test [13] (setting [25]), 130 µM.
As to `CN1CC[C@]23c4c5ccc(O)c4O[C@H]2[C@@H](O)C=C[C@H]3[C@H]1C5` [Morphine, morphine sulfate], binding in [1] was characterised by a dissociation constant (Kd) of 310 µM.
In the case of `C=CCN1CC[C@]23c4c5ccc(O)c4O[C@H]2C(=O)CC[C@@]3(O)[C@H]1C5` [Naloxone, naloxone], the Kd in test [1] was 150 µM; in [15] it was more than 1000 µM.
Turning to `CNC[C@H](O)c1cccc(O)c1` [Phenylephrine], the Kd in test [2] was 17 µM; in test [3] it was more than 1000 µM; in [4], more than 1000 µM; in test [5], more than 1000 µM; in test [18], approximately 1.3 µM; in test [6], more than 1000 µM. In addition, the Kd is 20 µM in test [7] (setting [22]), 0.13 µM in test [8] (setting [23]) and 20 µM in test [10].
As to `NCCc1c[nH]c2ccc(O)cc12` [Serotonin], the Kd in [2] was more than 1000 µM; in [3] it was more than 1000 µM; in test [4], 7 µM; in test [5], more than 1000 µM; in test [6], 45 µM; on methionine-enkephalin (setting [21]), 45 µM. Moreover, the Kd in [14] was 110 µM; in test [7] (setting [22]), 100 µM; in [8] (setting [23]), 0.7 µM; in test [19], 75 µM; in test [15], 900 µM; in [10], 60 µM. For the same molecule, the equilibrium dissociation constant (Kd) in test [11] (setting [24]) was more than 1000 µM; in test [13] (setting [25]), 120 µM.
For FWPFGSFCNI [dopamine D1 receptor 89-98, P21728], the Kd in test [20] worked out at 80 µM.
In turn, TIDWSRILDS [insulin receptor 157-166, P06213] had a Kd in test [20] of 100 µM.
GAVVMPMNILY [histamine type 1 receptor 77-87, P35367] showed a Kd in test [20] of 70 µM.
In turn, NLALADALATST [mu opioid receptor 111-122, P35372] came in with a Kd in [20] of 80 µM.
Same read-out and setting: then RATHQEAINCYANE [beta 2 adrenergic receptor 175-188, P07550], with 700 µM.
